# According to PubChem BioAssay (NCI):
#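 Interpolation was linear, between the two tested concentrations surrounding the appropriate level; five concentrations were tested over 48 hours in 96-well plates. The concentration for 50% growth inhibition is given as GI50. At the TGI there is no net growth.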
# Columns and labels:
# Experiment in all cases: inhibition of tumour cell growth, NCI panel, 48 h
# 786-0 renal = tested on: 786-0 renal
# A498 renal = tested on: A498 renal
# A549 NSCLC = tested on: A549 NSCLC
# ACHN renal = tested on: ACHN renal
# BT-549 breast = tested on: BT-549 breast
# CAKI-1 renal = tested on: CAKI-1 renal
# CCRF-CEM leukemia = tested on: CCRF-CEM leukemia
# COLO 205 colon = tested on: COLO 205 colon
# DU-145 prostate = tested on: DU-145 prostate
# HCC-2998 colon = tested on: HCC-2998 colon
# HCT-116 colon = tested on: HCT-116 colon
# HCT-15 colon = tested on: HCT-15 colon
# HL-60(TB) leukemia = tested on: HL-60(TB) leukemia
# HOP-62 NSCLC = tested on: HOP-62 NSCLC
# HOP-92 NSCLC = tested on: HOP-92 NSCLC
# HS 578T breast = tested on: HS 578T breast
# HT29 colon = tested on: HT29 colon
# IGROV1 ovarian = tested on: IGROV1 ovarian
# K-562 leukemia = tested on: K-562 leukemia
# KM12 colon = tested on: KM12 colon
# LOX IMVI melanoma = tested on: LOX IMVI melanoma
# M14 melanoma = tested on: M14 melanoma
# MALME-3M melanoma = tested on: MALME-3M melanoma
# MCF7 breast = tested on: MCF7 breast
# MDA-MB-231 breast = tested on: MDA-MB-231 breast
# MDA-MB-435 = tested on: MDA-MB-435
# MOLT-4 leukemia = tested on: MOLT-4 leukemia
# NCI-H226 lung = tested on: NCI-H226 lung
# NCI-H23 lung = tested on: NCI-H23 lung
# NCI-H460 lung = tested on: NCI-H460 lung
# NCI-H522 lung = tested on: NCI-H522 lung
# NCI/ADR-RES ovarian = tested on: NCI/ADR-RES ovarian
# OVCAR-3 ovarian = tested on: OVCAR-3 ovarian
# OVCAR-4 ovarian = tested on: OVCAR-4 ovarian
# OVCAR-5 ovarian = tested on: OVCAR-5 ovarian
# OVCAR-8 ovarian = tested on: OVCAR-8 ovarian
# PC-3 prostate = tested on: PC-3 prostate
# RPMI-8226 leukemia = tested on: RPMI-8226 leukemia
# RXF 393 renal = tested on: RXF 393 renal
# SF-268 CNS = tested on: SF-268 CNS
# SF-295 CNS = tested on: SF-295 CNS
# SF-539 CNS = tested on: SF-539 CNS
# SK-MEL-2 melanoma = tested on: SK-MEL-2 melanoma
# SK-MEL-28 melanoma = tested on: SK-MEL-28 melanoma
# SK-MEL-5 melanoma = tested on: SK-MEL-5 melanoma
# SK-OV-3 ovarian = tested on: SK-OV-3 ovarian
# SN12C renal = tested on: SN12C renal
# SNB-19 CNS = tested on: SNB-19 CNS
# SNB-75 CNS = tested on: SNB-75 CNS
# SR leukemia = tested on: SR leukemia
# SW-620 colon = tested on: SW-620 colon
# T-47D breast = tested on: T-47D breast
# TK-10 renal = tested on: TK-10 renal
# U251 CNS = tested on: U251 CNS
# UACC-257 melanoma = tested on: UACC-257 melanoma
# UACC-62 melanoma = tested on: UACC-62 melanoma
# UO-31 renal = tested on: UO-31 renal
smiles,measurement,setting,value
Cn1c(=O)c(Cc2ccccc2F)cc2cnc(NC3CCOCC3)nc21,GI50,786-0 renal,> 25 µM
same,TGI,786-0 renal,> 25 µM
same,GI50,A498 renal,> 25 µM
same,TGI,A498 renal,> 25 µM
same,GI50,A549 NSCLC,> 25 µM
same,TGI,A549 NSCLC,> 25 µM
same,GI50,ACHN renal,> 25 µM
same,TGI,ACHN renal,> 25 µM
same,GI50,BT-549 breast,> 25 µM
same,TGI,BT-549 breast,> 25 µM
same,GI50,CAKI-1 renal,> 25 µM
same,TGI,CAKI-1 renal,> 25 µM
same,GI50,CCRF-CEM leukemia,> 25 µM
same,TGI,CCRF-CEM leukemia,> 25 µM
same,GI50,COLO 205 colon,> 25 µM
same,TGI,COLO 205 colon,> 25 µM
same,GI50,DU-145 prostate,> 25 µM
same,TGI,DU-145 prostate,> 25 µM
same,GI50,HCC-2998 colon,> 25 µM
same,TGI,HCC-2998 colon,> 25 µM
same,GI50,HCT-116 colon,> 25 µM
same,TGI,HCT-116 colon,> 25 µM
same,GI50,HCT-15 colon,> 25 µM
same,TGI,HCT-15 colon,> 25 µM
same,GI50,HL-60(TB) leukemia,> 25 µM
same,TGI,HL-60(TB) leukemia,> 25 µM
same,GI50,HOP-62 NSCLC,> 25 µM
same,TGI,HOP-62 NSCLC,> 25 µM
same,GI50,HOP-92 NSCLC,4.91 µM
same,TGI,HOP-92 NSCLC,> 25 µM
same,GI50,HS 578T breast,> 25 µM
same,TGI,HS 578T breast,> 25 µM
same,GI50,HT29 colon,> 25 µM
same,TGI,HT29 colon,> 25 µM
same,GI50,IGROV1 ovarian,> 25 µM
same,TGI,IGROV1 ovarian,> 25 µM
same,GI50,K-562 leukemia,> 25 µM
same,TGI,K-562 leukemia,> 25 µM
same,GI50,KM12 colon,> 25 µM
same,TGI,KM12 colon,> 25 µM
same,GI50,LOX IMVI melanoma,> 25 µM
same,TGI,LOX IMVI melanoma,> 25 µM
same,GI50,M14 melanoma,> 25 µM
same,TGI,M14 melanoma,> 25 µM
same,GI50,MALME-3M melanoma,> 25 µM
same,TGI,MALME-3M melanoma,> 25 µM
same,GI50,MCF7 breast,> 25 µM
same,TGI,MCF7 breast,> 25 µM
same,GI50,MDA-MB-231 breast,> 25 µM
same,TGI,MDA-MB-231 breast,> 25 µM
same,GI50,MDA-MB-435,> 25 µM
same,TGI,MDA-MB-435,> 25 µM
same,GI50,MOLT-4 leukemia,> 25 µM
same,TGI,MOLT-4 leukemia,> 25 µM
same,GI50,NCI-H226 lung,> 25 µM
same,TGI,NCI-H226 lung,> 25 µM
same,GI50,NCI-H23 lung,> 25 µM
same,TGI,NCI-H23 lung,> 25 µM
same,GI50,NCI-H460 lung,> 25 µM
same,TGI,NCI-H460 lung,> 25 µM
same,GI50,NCI-H522 lung,> 25 µM
same,TGI,NCI-H522 lung,> 25 µM
same,GI50,NCI/ADR-RES ovarian,> 25 µM
same,TGI,NCI/ADR-RES ovarian,> 25 µM
same,GI50,OVCAR-3 ovarian,> 25 µM
same,TGI,OVCAR-3 ovarian,> 25 µM
same,GI50,OVCAR-4 ovarian,> 25 µM
same,TGI,OVCAR-4 ovarian,> 25 µM
same,GI50,OVCAR-5 ovarian,> 25 µM
same,TGI,OVCAR-5 ovarian,> 25 µM
same,GI50,OVCAR-8 ovarian,> 25 µM
same,TGI,OVCAR-8 ovarian,> 25 µM
same,GI50,PC-3 prostate,> 25 µM
same,TGI,PC-3 prostate,> 25 µM
same,GI50,RPMI-8226 leukemia,> 25 µM
same,TGI,RPMI-8226 leukemia,> 25 µM
same,GI50,RXF 393 renal,> 18.4 µM
same,TGI,RXF 393 renal,> 25 µM
same,GI50,SF-268 CNS,> 25 µM
same,TGI,SF-268 CNS,> 25 µM
same,GI50,SF-295 CNS,> 25 µM
same,TGI,SF-295 CNS,> 25 µM
same,GI50,SF-539 CNS,> 25 µM
same,TGI,SF-539 CNS,> 25 µM
same,GI50,SK-MEL-2 melanoma,> 25 µM
same,TGI,SK-MEL-2 melanoma,> 25 µM
same,GI50,SK-MEL-28 melanoma,> 25 µM
same,TGI,SK-MEL-28 melanoma,> 25 µM
same,GI50,SK-MEL-5 melanoma,> 25 µM
same,TGI,SK-MEL-5 melanoma,> 25 µM
same,GI50,SK-OV-3 ovarian,> 25 µM
same,TGI,SK-OV-3 ovarian,> 25 µM
same,GI50,SN12C renal,> 25 µM
same,TGI,SN12C renal,> 25 µM
same,GI50,SNB-19 CNS,> 25 µM
same,TGI,SNB-19 CNS,> 25 µM
same,GI50,SNB-75 CNS,> 8.48 µM
same,TGI,SNB-75 CNS,> 25 µM
same,GI50,SR leukemia,> 25 µM
same,TGI,SR leukemia,> 25 µM
same,GI50,SW-620 colon,> 25 µM
same,TGI,SW-620 colon,> 25 µM
same,GI50,T-47D breast,> 25 µM
same,TGI,T-47D breast,> 25 µM
same,GI50,TK-10 renal,> 25 µM
same,TGI,TK-10 renal,> 25 µM
same,GI50,U251 CNS,> 25 µM
same,TGI,U251 CNS,> 25 µM
same,GI50,UACC-257 melanoma,> 25 µM
same,TGI,UACC-257 melanoma,> 25 µM
same,GI50,UACC-62 melanoma,> 25 µM
same,TGI,UACC-62 melanoma,> 25 µM
same,GI50,UO-31 renal,> 20.4 µM
same,TGI,UO-31 renal,> 25 µM
